Source: patent publication US8097730B2, “Bicyclic heterocycles useful as selective androgen receptor modulators” (Janssen Pharmaceutica N.V., priority 2006, dated 2012)
Read-outs that look alike come from different tables or passages of the source.

How the values were obtained:
[1] = test system: Immature castrated male Sprague Dawley rats; ventral prostate and levator ani; test: Ventral Prostate and Levator Ani Weight In Vivo Assay (agonist activity, percent stimulation of tissue weight); set-up: species or system rat; key to % Prostate Stimulation: level 1 agonist active if it produced greater than or equal to 30% stimulation of levator ani or ventral prostate at 30 mg/kg; level 2 agonist active if it produced greater than or equal to 5% but less than 30% stimulation of levator ani or ventral prostate at 30 mg/kg; listed herein as “inactive” as they did not meet the specified criteria defined above; details: once daily for five days, oral, vehicle = 0%, testosterone alone = 100%, classes defined at 30 mg/kg; for change in vivo at 30 mg/kg: Rattus norvegicus, 120 h
Experimental: Ventral Prostate and Levator Ani Weight In Vivo Assay
(§1) Immature (approximately 50 g) castrated male Sprague Dawley rats (Charles River) were treated once daily for five days with test compound (usually given orally at 40 mg/kg in a volume of 0.3 mL, in 30% cyclodextrin or 0.5% methylcellulose vehicle) and with testosterone propionate (given subcutaneously by injection at the nape of the neck at 2 mg/kg, in a volume of 0.1 mL in sesame oil). On the sixth day, the rats were euthanized by asphyxiation in carbon dioxide. Ventral prostates and levator ani muscles were removed and their wet weights determined.
Test compound activity was determined as the percent stimulation of tissue weight, with the vehicle-treated control group set to zero percent and the testosterone alone-treated control group set to 100%. A compound was designated as level 1 agonist active if it produced greater than or equal to 30% stimulation of levator ani or ventral prostate at 30 mg/kg. A compound was designated as level 2 agonist active if it produced greater than or equal to 5% but less than 30% stimulation of levator ani or ventral prostate at 30 mg/kg.
Representative compounds of the present invention were tested according to the procedure described, with results as listed in Table 3 below.

[2] = test system: Immature castrated male Sprague Dawley rats; ventral prostate and seminal vesicle; test: Ventral Prostate and Seminal Vesicle Weight In Vivo Assay (antagonist activity, percent inhibition of testosterone-enhanced tissue weights); set-up: species or system rat; key to Inhibition of prostate (non-weight prostate weight, mg): level 1 agonist active if it produced greater than or equal to 30% stimulation of levator ani or ventral prostate at 30 mg/kg; level 2 agonist active if it produced greater than or equal to 5% but less than 30% stimulation of levator ani or ventral prostate at 30 mg/kg; listed herein as “inactive” as they did not meet the specified criteria defined above; details: compound oral once daily for five days with testosterone propionate 2 mg/kg s.c., classes defined at 30 mg/kg; for inhibition in vivo at 30 mg/kg: Rattus norvegicus, 120 h
Experimental: Ventral Prostate and Seminal Vesicle Weight In Vivo Assay
as §1, with “([…],” for “(usually given orally at 40 mg/kg in a volume of 0.3 mL,”, “prosatates” for “prostates”, “seminal vesicles” for “levator ani muscles”, “determined. Test compound activity was determined as the percent inhibition of testosterone-enhanced tissue weights, with a vehicle-treated control group set to zero percent and a testosterone alone-treated control group set to 100%.” for “determined.”
Representative compounds of the present invention were tested according to the procedure described, with results as listed in Table 4 below.

[3] = seminal vesicle wet weight, read-out: Inhibition of seminal vesicle (non-weight seminal vesicle weight, mg)
[4] = ventral prostate wet weight, read-out: Inhibition of prostate (non-weight prostate weight, mg)
[5] = levator ani wet weight, read-out: % levator ani Stimulation
[6] = ventral prostate wet weight, read-out: % Prostate Stimulation

SMILES | % levator ani Stimulation ([1]; levator ani wet weight) | % Prostate Stimulation ([1]; ventral prostate wet weight) | inhibition in vivo at 30 mg/kg [2, 3] [%] | inhibition in vivo at 30 mg/kg [2, 4] [%] | change in vivo at 30 mg/kg [1, 5] [%] | Inhibition of prostate (non-weight prostate weight, mg) ([2]; ventral prostate wet weight) | change in vivo at 30 mg/kg [1, 6] [%] | Inhibition of seminal vesicle (non-weight seminal vesicle weight, mg) ([2]; seminal vesicle wet weight)
CC12CNC(=O)N1C(=O)N(c1ccc(C#N)c(C(F)(F)F)c1)C2=O (centres unmarked) [Compound 15, 4-(7a-Methyl-1,3,5-trioxo-tetrahydro-imidazo[1,5-c]imidazol-2-yl)-2-trifluoromethyl-benzonitrile] | Inactive | inactive | ≥ 30 | ≥ 30 |  |  |  | 
CCOC(=O)C1=NN2C(=O)C(=O)N(c3ccc(C#N)c(C(F)(F)F)c3)C(=O)C2(C)C1 (centres unmarked) [Compound 8, 5-(4-Cyano-3-trifluoromethyl-phenyl)-3a-methyl-4,6,7-trioxo-3,3a,4,5,6,7-hexahydro-pyrazolo[1,5-a]pyrazine-2-carboxylic acid ethyl ester] |  | inactive | 5 to 30 |  | 5 to 30 | inactive |  | 
CC12CC(C(F)(F)F)=NN1C(=O)N(c1ccc(C#N)c(C(F)(F)F)c1)C2=O (centres unmarked) [Compound 1, 4-(3a-Methyl-4,6-dioxo-2-trifluoromethyl-3a,4-dihydro-3H-imidazo[1,5-b]pyrazol-5-yl)-2-trifluoromethyl-benzonitrile] |  |  | 5 to 30 | 5 to 30 | ≥ 30 |  | 5 to 30 | 
CCOC(=O)C1=NN2C(=O)N(c3ccc(C#N)c(C(F)(F)F)c3)C(=O)C2(C)C1 (centres unmarked) [Compound 5, 5-(4-Cyano-3-trifluoromethyl-phenyl)-3a-methyl-4,6-dioxo-3a,4,5,6-tetrahydro-3H-imidazo[1,5-b]pyrazole-2-carboxylic acid ethyl ester] | Inactive | inactive | 5 to 30 | 5 to 30 |  |  |  | 
CC(=O)Nc1ccc(C2=NN3C(=O)N(c4ccc(C#N)c(C(F)(F)F)c4)C(=O)C3(C)C2)cc1 (centres unmarked) [Compound 7, N-{4-[5-(4-Cyano-3-trifluoromethyl-phenyl)-3a-methyl-4,6-dioxo-3a,4,5,6-tetrahydro-3H-imidazo[1,5-b]pyrazol-2-yl]-phenyl}-acetamide] |  |  |  | 5 to 30 | 5 to 30 |  | 5 to 30 | Inactive
CC12CNC(=O)N1C(=O)N(c1ccc(Cl)c(C(F)(F)F)c1)C2=O (centres unmarked) [Compound 13, 2-(4-Chloro-3-trifluoromethyl-phenyl)-7a-methyl-dihydro-imidazo[1,5-c]imidazole-1,3,5-trione] | Inactive | inactive | ≥ 30 | ≥ 30 |  |  |  | 
CCOC(=O)C1=NN2C(=O)N(c3ccc([N+](=O)[O-])c(C(F)(F)F)c3)C(=O)C2(C)C1 (centres unmarked) [Compound 6, 3a-Methyl-5-(4-nitro-3-trifluoromethyl-phenyl)-4,6-dioxo-3a,4,5,6-tetrahydro-3H-imidazo[1,5-b]pyrazole-2-carboxylic acid ethyl ester] | Inactive | inactive | 5 to 30 | 5 to 30 |  |  |  | 
CN1CC2(C)C(=O)N(c3ccc(Cl)c(C(F)(F)F)c3)C(=O)N2C1=O (centres unmarked) [Compound 16, 2-(4-Chloro-3-trifluoromethyl-phenyl)-6,7a-dimethyl-dihydro-imidazo[1,5-c]imidazole-1,3,5-trione] | Inactive | inactive | ≥ 30 | ≥ 30 |  |  |  | 
C[C@@]12CC(C(F)(F)F)=NN1[S+]([O-])N(c1ccc(C#N)c(C(F)(F)F)c1)C2=O (stereo partly drawn) [Compound 10, (S)-4-(3a-Methyl-1,3-dioxo-5-trifluoromethyl-3a,4-dihydro-3H-1I4-thia-2,6,6a-triaza-pentalen-2-yl)-2-trifluoromethyl-benzonitrile] |  |  | 5 to 30 | ≥ 30 | ≥ 30 |  | ≥ 30 | 
C[C@@]12CC(C(F)(F)F)=NN1C(=O)N(c1ccc(C#N)c(C(F)(F)F)c1)C2=O [Compound 3, (S)-4-(3a-Methyl-4,6-dioxo-2-trifluoromethyl-3a,4-dihydro-3H-imidazo[1,5-b]pyrazol-5-yl)-2-trifluoromethyl-benzonitrile] |  |  | 5 to 30 | 5 to 30 | ≥ 30 |  | ≥ 30 | 
CC12COC(=O)N1C(=O)N(c1ccc(Cl)c(C(F)(F)F)c1)C2=O (centres unmarked) [Compound 12, 6-(4-Chloro-3-trifluoromethyl-phenyl)-7a-methyl-dihydro-imidazo[1,5-c]oxazole-3,5,7-trione] | Inactive | inactive | 5 to 30 | 5 to 30 |  |  |  | 
C[C@]12CC(C(F)(F)F)=NN1C(=O)N(c1ccc(C#N)c(C(F)(F)F)c1)C2=O [Compound 2, (R)-4-(3a-Methyl-4,6-dioxo-2-trifluoromethyl-3a,4-dihydro-3H-imidazo[1,5-b]pyrazol-5-yl)-2-trifluoromethyl-benzonitrile] |  |  | 5 to 30 | 5 to 30 | ≥ 30 |  | 5 to 30 | 
CC12CC=NN1C(=O)N(c1ccc(C#N)c(C(F)(F)F)c1)C2=O (centres unmarked) [Compound 4, 4-(3a-Methyl-4,6-dioxo-3a,4-dihydro-3H-imidazo[1,5-b]pyrazol-5-yl)-2-trifluoromethyl-benzonitrile] | Inactive | inactive | 5 to 30 | 5 to 30 |  |  |  | 
C[C@@]12CC(C(F)(F)F)=NN1S(=O)(=O)N(c1ccc(C#N)c(C(F)(F)F)c1)C2=O [Compound 11, 4-(3a-Methyl-1,1,3-trioxo-5-trifluoromethyl-3a,4-dihydro-3H-1I6-thia-2,6,6a-triaza-pentalen-2-yl)-2-trifluoromethyl-benzonitrile] |  |  | 5 to 30 | 5 to 30 | ≥ 30 |  | ≥ 30 | 
